Results: PubChem BioAssay AID2060902 (Molecular Pharmacology Branch, DTP, NCI, 2025)
pIC50: −log10 of the molar value.

Tested on: 485368-065-R3-J5-PDC spheroids with HUVEC/MSC, viability
Test: Anticancer human tumor 485368-065-R3-J5-PDC patient-derived pancreatic carcinoma cell line growth inhibition [RAS]
Conditions: for pIC50: curve of first compound; for viability, T/C: stronger effect = lower value
In short: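 Multi-cell-type spheroids: tumor cells plus HUVEC endothelial cells and mesenchymal stem cells. RAS-pathway inhibitors were combined with targeted agents, each dosed in half-log steps down from clinical Cmax, or from 10 microM when Cmax was unknown.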
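Note: spheroids exposed to agents for seven days before readout.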

Compound: CC(=O)OC12COC1CC(O)C1(C)C(=O)C(O)C3=C(C)C(OC(=O)C(O)C(NC(=O)OC(C)(C)C)c4ccccc4)CC(O)(C(OC(=O)c4ccccc4)C21)C3(C)C (configuration not stated) + C#Cc1c(F)ccc2cc(O)cc(-c3ncc4c(N5CC6CCC(C5)N6)nc(OCC56CCCN5CC(F)C6)nc4c3F)c12
- pIC50 (second compound 0.0316 µM): > 7.50
- pIC50 (second compound 0.1 µM): > 7.50
- pIC50 (second compound 0.316 µM): > 7.50
- pIC50 (second compound 1 µM): > 7.50
- pIC50 (second compound 3.16 µM): > 7.50
- pIC50 (second compound 10 µM): > 7.50
- viability, T/C (second compound 0.0316 µM, first compound 0.0316 µM): 12.5%
- viability, T/C (second compound 0.0316 µM, first compound 0.1 µM): 12.5%
- viability, T/C (second compound 0.0316 µM, first compound 0.316 µM): 13%
- viability, T/C (second compound 0.0316 µM, first compound 1 µM): 12.7%
- viability, T/C (second compound 0.0316 µM, first compound 3.16 µM): 18.7%
- viability, T/C (second compound 0.0316 µM, first compound 10 µM): 23.6%
- viability, T/C (second compound 0.1 µM, first compound 0.0316 µM): 11%
- viability, T/C (second compound 0.1 µM, first compound 0.1 µM): 10.2%
- viability, T/C (second compound 0.1 µM, first compound 0.316 µM): 14.2%
- viability, T/C (second compound 0.1 µM, first compound 1 µM): 14.4%
- viability, T/C (second compound 0.1 µM, first compound 3.16 µM): 19.8%
- viability, T/C (second compound 0.1 µM, first compound 10 µM): 16.9%
- viability, T/C (second compound 0.316 µM, first compound 0.0316 µM): 13%
- viability, T/C (second compound 0.316 µM, first compound 0.1 µM): 13.3%
- viability, T/C (second compound 0.316 µM, first compound 0.316 µM): 17.1%
- viability, T/C (second compound 0.316 µM, first compound 1 µM): 14.9%
- viability, T/C (second compound 0.316 µM, first compound 3.16 µM): 15.4%
- viability, T/C (second compound 0.316 µM, first compound 10 µM): 14.4%
- viability, T/C (second compound 1 µM, first compound 0.0316 µM): 11.2%
- viability, T/C (second compound 1 µM, first compound 0.1 µM): 13.9%
- viability, T/C (second compound 1 µM, first compound 0.316 µM): 12.4%
- viability, T/C (second compound 1 µM, first compound 1 µM): 16.5%
- viability, T/C (second compound 1 µM, first compound 3.16 µM): 14.7%
- viability, T/C (second compound 1 µM, first compound 10 µM): 26.3%
- viability, T/C (second compound 3.16 µM, first compound 0.0316 µM): 11.3%
- viability, T/C (second compound 3.16 µM, first compound 0.1 µM): 9.14%
- viability, T/C (second compound 3.16 µM, first compound 0.316 µM): 12%
- viability, T/C (second compound 3.16 µM, first compound 1 µM): 15.7%
- viability, T/C (second compound 3.16 µM, first compound 3.16 µM): 19.1%
- viability, T/C (second compound 3.16 µM, first compound 10 µM): 16.1%
- viability, T/C (second compound 10 µM, first compound 0.0316 µM): 12.9%
- viability, T/C (second compound 10 µM, first compound 0.1 µM): 11.2%
- viability, T/C (second compound 10 µM, first compound 0.316 µM): 10.8%
- viability, T/C (second compound 10 µM, first compound 1 µM): 14.3%
- viability, T/C (second compound 10 µM, first compound 3.16 µM): 14.7%
- viability, T/C (second compound 10 µM, first compound 10 µM): 19.1%
